Data published in PMC8400968, “Design, Synthesis, Biological Evaluation, and Computational Studies of Novel Tri-Aryl Imidazole-Benzene Sulfonamide Hybrids as Promising Selective Carbonic Anhydrase IX and XII Inhibitors” (Molecules, 2021).
Where “and” joins values, the source holds several entries; their conditions need not be identical. Identical values can stand only once. Like-named read-outs stand apart in the source and are kept apart here.

Legend:
hCA IX = target: T1, hCA IX (Homo sapiens, UniProt Q16790); assay: stopped-flow CO2 hydrase assay, hCA IX; type: biochemical; conditions: for Selectivity Ratio hCA XII/ hCA IX: selectivity for hCA IX over hCA XII; for Ki: stopped-flow CO2 hydrase assay; for IC50: quoted in docking discussion, read-out: IC50 CA-IX (in vitro inhibitory activity quoted in docking study); for fold lower inhibitory activity on hCA IX than the ortho-derivative: 5f vs 5e, 5h vs 5g
T1 construct: made in house
Procedure: (§1) Newly synthesized hybrids 5a–n were tested for their inhibitory activity against four physiologically and pharmacologically CA isoforms, namely cytosolic hCA I and II, and tumor-associated isoforms hCA IX and XII, using a CO2 hydrase stop-flow assay. Acetazolamide (AAZ), clinically used sulphonamide, was used as the standard drug. […] The ability of imidazoles 5a–n toward inhibition of hCA I, II (cytosolic) as well as hCA IX and XII (transmembrane, tumor-associated isoforms) using stopped-flow CO2 hydrase assay was evaluated. See Appendix A.
(§2) The enzymes are recombinant proteins prepared in our lab. […] The uncatalyzed rates were determined in the same manner and subtracted from the total observed rates. Stock solutions of inhibitor (0.1 mM) were prepared in distilled-deionized water and dilutions up to 0.01 nM were done thereafter with the assay buffer. Inhibitor and enzyme solutions were preincubated together for 15 min at room temperature prior to assay, in order to allow for the formation of the E-I complex. The inhibition constants were obtained by non-linear least-squares methods using PRISM 3 and the Cheng-Prusoff equation, and represent the mean from at least three different determinations.

hCA XII = target: T2, hCA XII (Homo sapiens, UniProt O43570); assay: stopped-flow CO2 hydrase assay, hCA XII; type: biochemical
T2 construct: made in house
T2 sequence (O43570 25-354): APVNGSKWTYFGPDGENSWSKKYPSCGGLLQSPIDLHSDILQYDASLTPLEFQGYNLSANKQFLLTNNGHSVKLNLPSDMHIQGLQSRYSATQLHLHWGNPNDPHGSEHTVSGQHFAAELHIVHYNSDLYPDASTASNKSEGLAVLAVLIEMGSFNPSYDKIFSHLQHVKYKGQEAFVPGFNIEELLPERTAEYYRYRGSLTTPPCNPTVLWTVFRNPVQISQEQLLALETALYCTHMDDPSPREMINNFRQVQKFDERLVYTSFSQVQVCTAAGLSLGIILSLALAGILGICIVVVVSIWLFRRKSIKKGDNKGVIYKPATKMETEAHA
Procedure: Newly synthesized hybrids 5a–n were tested for their inhibitory activity against four physiologically and pharmacologically CA isoforms, namely cytosolic hCA I and II, and tumor-associated isoforms hCA IX and XII, using a CO2 hydrase stop-flow assay. Acetazolamide (AAZ), clinically used sulphonamide, was used as the standard drug. […]. The ortho substitution in the aryl moiety appears to correlate with higher inhibitory effects against both hCA IX and XII. […] […]. The ability of imidazoles 5a–n toward inhibition of hCA I, II (cytosolic) as well as hCA IX and XII (transmembrane, tumor-associated isoforms) using stopped-flow CO2 hydrase assay was evaluated. See Appendix A.
The carbonic anhydrase catalyzed CO2 hydration actions for all new compounds herein reported have were assayed utilizing an instrument of Applied Photophysics stopped-flow. The enzymes are recombinant proteins prepared in our lab. […]. The uncatalyzed rates were determined in the same manner and subtracted from the total observed rates. Stock solutions of inhibitor (0.1 mM) were prepared in distilled-deionized water and dilutions up to 0.01 nM were done thereafter with the assay buffer. Inhibitor and enzyme solutions were preincubated together for 15 min at room temperature prior to assay, in order to allow for the formation of the E-I complex. The inhibition constants were obtained by non-linear least-squares methods using PRISM 3 and the Cheng-Prusoff equation, and represent the mean from at least three different determinations.

hCA II = target: T3, hCA II (Homo sapiens, UniProt P00918); assay: stopped-flow CO2 hydrase assay, hCA II; type: biochemical
T3 construct: made in house
Procedure: as §1, §2

hCA I = target: T4, hCA I (Homo sapiens, UniProt P00915); assay: stopped-flow CO2 hydrase assay, hCA I; type: biochemical
T4 construct: made in house
T4 sequence (P00915 whole entry): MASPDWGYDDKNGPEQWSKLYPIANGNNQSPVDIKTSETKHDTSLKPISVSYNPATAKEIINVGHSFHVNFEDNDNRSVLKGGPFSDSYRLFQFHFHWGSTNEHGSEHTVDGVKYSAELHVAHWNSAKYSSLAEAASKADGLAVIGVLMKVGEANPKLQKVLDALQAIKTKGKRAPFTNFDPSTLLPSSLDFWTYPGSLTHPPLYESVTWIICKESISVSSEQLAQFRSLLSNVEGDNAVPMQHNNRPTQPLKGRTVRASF
Procedure: as §1, §2

[1] = tested on: breast cancer cell line (MCF-7); assay: Antiproliferative activity, MTT assay, MCF-7; type: cell-based; conditions: Homo sapiens, MCF7; MCF-7, MTT; read-out: Antiproliferative Activity IC50 ± SEM MCF-7
Procedure: (§3) The antiproliferative activity of 5b, 5d, 5e, 5g, 5j and 5n against four human cancer cell lines including pancreatic cancer cell line (Panc-1), breast cancer cell line (MCF-7), colon cancer cell line (HT-29) and epithelial cancer cell line (A-549) using MTT assay and doxorubicin was applied as the reference compound [22, 23]. Graph Pad Prism software (Graph Pad Software, San Diego, CA, USA) was used to calculate the median inhibition concentration (IC50) and results are recorded in Table 2.
(§4) The antiproliferative activity of 5b, 5d, 5e, 5g, 5j and 5n against four human cancer cell lines including pancreatic cancer cell line (Panc-1), breast cancer cell line (MCF-7), colon cancer cell line (HT-29) and epithelial cancer cell line (A-549) using MTT assay and doxorubicin was applied as the reference compound [22, 23]. See Appendix A.
(§5) To explore the antiproliferative potential of compounds MTT assay was performed according to previously reported procedure using different cell lines To explore the antiproliferative potential of compounds propidium iodide fluorescence assay was performed using different cell lines. To calculate the total nuclear DNA, a fluorescent dye (propidium iodide, PI) is used which can attach to the DNA, thus offering a quick and precise technique. PI cannot pass through the cell membrane and its signal intensity can be considered as directly proportional to quantity of cellular DNA. Cells whose cell membranes are damaged or have changed permeability are counted as dead ones. The assay was performed by seeding the cells of different cell lines at a density of 3000–7500 cells/well (in 200 µL medium) in culture plates followed by incubation for 24 h at 37 °C in humidified 5% CO2/95% air atmospheric conditions. The medium was removed; the compounds were added to the plates at 10 µM concentrations (in 0.1% DMSO) in triplicates, followed by incubation for 48 h. DMSO (0.1%) was used as control. After incubation, medium was removed followed by the addition of PI (25 µL, 50µg/mL in water/medium) to each well of the plates. At −80 °C, the plates were allowed to freeze for 24 h, followed by thawing at 25 °C. A fluorometer (Polar-Star BMG Tech, Offenburg, Germany) was used to record the readings at excitation and emission wavelengths of 530 and 620 nm for each well. The percentage cytotoxicity of compounds was calculated using the following formula: %Cytotoxicity=(Ac−Atc)/Ac×100 where Atc = Absorbance of treated cells and Ac = Absorbance of control. Erlotinib was used as positive control in the assay.

[2] = tested on: four human cancer cell lines (Panc-1, MCF-7, HT-29, A-549); assay: Antiproliferative activity, MTT assay, average of the four cell lines; type: cell-based; conditions: for IC50: average of A-549, MCF-7, Panc-1, HT-29; for GI50: four cancer cell lines, read-out: GI50
Procedure: as §3, §4, §5

[3] = tested on: pancreatic cancer cell line (Panc-1); assay: Antiproliferative activity, MTT assay, Panc-1; type: cell-based; conditions: Homo sapiens; Panc-1, MTT; read-out: Antiproliferative Activity IC50 ± SEM Panc-1
Procedure: as §3, §4, §5

[4] = tested on: colon cancer cell line (HT-29); assay: Antiproliferative activity, MTT assay, HT-29; type: cell-based; conditions: Homo sapiens; HT-29, MTT; read-out: Antiproliferative Activity IC50 ± SEM HT-29
Procedure: as §3, §4, §5

[5] = Cell viability assay (MTT); type: cell-based; conditions: human, MCF-10A mammary gland epithelial cells, MCF-10A cells, incubated 4 days
Procedure: Cell viability assay was carried out using human mammary gland epithelial cell line (MCF-10A). MCF-10A cells were incubated with compounds 5b, 5d, 5e, 5g, 5j and 5n for 4 days and MTT assay was used to determine the viability of cells. See Appendix A.
MTT assay was carried out to study the effect of compounds on mammary epithelial cells (MCF-10A). The medium in which cells were propagated contained Dulbecco’s modified Eagle’s medium (DMEM)/Ham’s F-12 medium (1:1) supplemented with epidermal growth factor (20 ng/mL), hydrocortisone (500 ng/mL), insulin (10 μg/mL), 2 mM glutamine and 10% fetal calf serum. After every 2–3 days, the cells were passaged using trypsin ethylenediamine tetra acetic acid (EDTA). The cells were seeded at a density of 10^4 cells mL^−1 in flat-bottomed culture plates containing 96 wells each. After 24 h, medium was removed from the plates and the compounds in (in 0.1% DMSO) were added (in 200 μL medium to yield a final concentration of 0.1% v/v) to the wells of plates. A single compound was designated with four wells followed by incubation of plates for 96 h at 37 °C. After incubation, medium was removed completely from the plates followed by addition of MTT (0.4 mg/mL in medium) to each well and subsequent incubation of plates for 3 h. MTT (along with the medium) was removed and DMSO (150 μL) was added to each well of the culture plates, followed by vortexing and subsequent measurement of absorbance (at 540 nm) using microplate reader. The data are shown as percentage inhibition of proliferation in comparison with controls containing 0.1% DMSO.

[6] = tested on: epithelial cancer cell line (A-549); assay: Antiproliferative activity, MTT assay, A-549; type: cell-based; conditions: Homo sapiens, A549; A-549, MTT; read-out: Antiproliferative Activity IC50 ± SEM A-549
Procedure: as §3, §4, §5

[7] = stopped-flow CO2 hydrase assay, read-out: Ki hCA I

SMILES	Selectivity Ratio hCA XII/ hCA IX (hCA IX)	Ki (hCA IX)	Ki (hCA XII) [µM]	Ki (hCA II) [µM]	melting point [°C]	Ki (hCA I) [µM]	IC50 [1] [µM]	IC50 (hCA IX) [µM]	IC50 [2] [µM]	GI50 [2] [µM]	IC50 [3] [µM]	IC50 [4] [µM]	viability at 96 h [5] [%]	IC50 [6] [µM]	Ki (hCA I; [7]) [µM]	fold lower inhibitory activity on hCA IX than the ortho-derivative (hCA IX) [fold]
NS(=O)(=O)c1ccc(-n2c(-c3ccccc3)nc(-c3ccccc3)c2-c2ccccc2)cc1 [Compound 5a, 4-(2,4,5-Triphenyl-1H-imidazol-1-yl)benzene sulfonamide]	1.90	2.9 µM	5.5	> 100	210 to 212	> 100	–	–	–	–	–	–	–	–	–	–
NS(=O)(=O)c1ccc(-n2c(-c3ccccc3Br)nc(-c3ccccc3)c2-c2ccccc2)cc1 [Compound 5b, 4-(2-(2-Bromophenyl)-4,5-diphenyl-1H-imidazol-1-yl)benzene sulfonamide]	11.50	0.36 µM and 0.4 µM	4.6	> 100	–	–	2.7 ± 0.4	0.36	2.8	2.8	2.5 ± 0.2	3.1 ± 0.1	91	2.8 ± 0.5	> 100	–
NS(=O)(=O)c1ccc(-n2c(-c3ccc(Cl)cc3)nc(-c3ccccc3)c2-c2ccccc2)cc1 [Compound 5c, 4-(2-(4-Chlorophenyl)-4,5-diphenyl-1H-imidazol-1-yl)benzene sulfonamide]	0.45	8.2 µM	3.7	> 100	230 to 232	> 100	–	–	–	–	–	–	–	–	–	–
NS(=O)(=O)c1ccc(-n2c(-c3ccccc3O)nc(-c3ccccc3)c2-c2ccccc2)cc1 [Compound 5e, 4-(2-(2-Hydroxyphenyl)-4,5-diphenyl-1H-imidazol-1-yl)benzene sulfonamide]	6.50	0.84 µM and 0.8 µM	5.2	> 100	–	> 100	3.6 ± 0.8	–	3.9	–	3.7 ± 0.5	3.9 ± 0.6	86	4.4 ± 0.7	–	–
NS(=O)(=O)c1ccc(-n2c(-c3ccc(O)cc3)nc(-c3ccccc3)c2-c2ccccc2)cc1 [Compound 5f, 4-(2-(4-Hydroxyphenyl)-4,5-diphenyl-1H-imidazol-1-yl)benzene sulfonamide]	0.90	8.4 µM	7.1	> 100	–	> 100	–	–	–	–	–	–	–	–	–	10
COc1ccc(-c2nc(-c3ccccc3)c(-c3ccccc3)n2-c2ccc(S(N)(=O)=O)cc2)cc1 [Compound 5h, 4-(2-(4-Methoxyphenyl)-4,5-diphenyl-1H-imidazol-1-yl)benzene sulfonamide]	0.50	7.4 µM	3.9	> 100	235 to 237	> 100	–	–	–	–	–	–	–	–	–	22
COc1ccc(-c2nc(-c3ccccc3)c(-c3ccccc3)n2-c2ccc(S(N)(=O)=O)cc2)cc1OC [Compound 5i, 4-(2-(3,4-Dimethoxyphenyl)-4,5-diphenyl-1H-imidazol-1-yl)benzene sulfonamide]	0.70	9.2 µM	6.6	> 100	260 to 262	> 100	–	9.2	–	–	–	–	–	–	–	–
CN(C)c1ccc(-c2nc(-c3ccccc3)c(-c3ccccc3)n2-c2ccc(S(N)(=O)=O)cc2)cc1 [Compound 5k, 4-(2-(4-(Dimethylamino)phenyl)-4,5-diphenyl-1H-imidazol-1-yl)benzene sulfonamide]	0.70	9.3 µM	6.8	> 100	224 to 226	> 100	–	9.3	–	–	–	–	–	–	–	–
NS(=O)(=O)c1ccc(-n2c(-c3ccc(C(=O)O)cc3)nc(-c3ccccc3)c2-c2ccccc2)cc1 [Compound 5l, 4-(4,5-Diphenyl-1-(4-sulfamoylphenyl)-1H-imidazol-2-yl)benzoic acid]	0.80	8.5 µM	6.8	> 100	200 to 202	> 100	–	–	–	–	–	–	–	–	–	–
CCOC(=O)c1ccc(-c2nc(-c3ccccc3)c(-c3ccccc3)n2-c2ccc(S(N)(=O)=O)cc2)cc1 [Compound 5m, Ethyl 4-(4,5-diphenyl-1-(4-sulfamoylphenyl)-1H-imidazol-2-yl)benzoate]	0.70	8.8 µM	6.2	> 100	216 to 218	–	–	–	–	–	–	–	–	–	> 100	–
COc1cccc2c1C(=O)c1c(O)c3c(c(O)c1C2=O)C[C@@](O)(C(=O)CO)C[C@@H]3O[C@H]1C[C@H](N)[C@H](O)[C@H](C)O1 [Doxorubicin, reference compound]	–	–	–	–	–	–	0.9 ± 0.6	–	1.1	1.1	1.4 ± 0.6	1 ± 0.8	–	1.2 ± 0.8	–	–
